Data set [1] deals with muscarinic receptor (cerebral cortex). Kind of data set: Muscarinic receptor binding, (−)3H-QNB competition, cerebral cortex homogenate. Conditions: guinea pig cerebral cortex, 2 nM (−)3H-QNB, 25° C., 80 minutes. On the procedure: (§1) The tissue preparations and the general methods used have been described in detail elsewhere for the parotid gland^1, urinary bladder^2, heart^3 and cerebral cortex^3, respectively. Male guinea pigs (250-400 g body weight) were killed by a blow on the neck and exsanguinated. The brain was placed on ice for dissection of the cerebral cortex (grey matter only). Urinary bladders, hearts and parotid glands were dissected in a Krebs-Henseleit buffer (pH 7.4) containing 1 mM phenyl methyl sulfonyl fluoride (PMSF, a protease inhibitor). Dissected tissues were homogenized in an ice-cold sodium-potassium phosphate buffer (50 mM, pH 7.4) containing 1 mM PMSF, using a Polytron PT-10 instrument (bladder, heart, parotid) and a Potter-Elvehjem Teflon homogenizer (cortex). All homogenates were finally diluted with the ice-cold phosphate/PMSF buffer to a final protein concentration of ≦0.3 mg/ml and immediately used in the receptor binding assays. Protein was determined by the method of Lowry et al. (1951)^4, using bovine serum albumin as the standard.
(§2) The muscarinic receptor affinities of the unlabelled compounds A to D identified above were derived from competition experiments in which the ability to inhibit the receptor specific binding of (−)^3H-QNB (1-quinuclidinyl[phenyl-4-^3H]benzilate, 32.9 Ci/mmole) was monitored as previously described^3,5. Each sample contained 10 μl of (−)^3H-QNB (final concentration 2 nM), 10 μl solution of test compound and 1.0 ml tissue homogenate. Triplicate samples were incubated under conditions of equilibrium, i.e., at 25° C. for 60 minutes (urinary bladder), 80 minutes (heart and cerebral cortex) or 210 minutes (parotid gland), respectively. Non-specific binding was determined in the presence of 10 μM unlabelled atropine. Incubations were terminated by centrifugation^2, and the radioactivity in the pellets was determined by liquid scintillation spectrometry^2.
(§3) IC50-values (concentration of unlabelled compound producing 50% inhibition of the receptor specific (−)^3H-QNB binding) were graphically determined from the experimental concentration-inhibition curves. Affinities, expressed as the dissociation constants Ki, were calculated by correcting the IC50 for the radioligand-induced parallel shift and differences in receptor concentration, using the method of Jacobs et al. (1975)^6. The binding parameters for (−)^3H-QNB (KD and receptor densities) used in these calculations were determined in separate series of experiments^1-3.

Data set [2] addresses muscarinic receptor (urinary bladder). In words: Muscarinic receptor binding, (−)3H-QNB competition, urinary bladder homogenate. To be noted: guinea pig urinary bladder, 2 nM (−)3H-QNB, 25° C., 60 minutes. On the procedure: as §1, §2, §3
The nature of data set [3]: Functional in vivo study in anaesthetized cats: blood pressure, blood flow, heart rate. To be noted: cat. Here is the method:
(§4) Adult cats were anaesthetized with mebumal (42 mg/kg) intraperitoneally. When the animal was asleep, an infusion cannula was inserted into the foreleg vein and the cat was given alpha-chloralose. During the experiment the animal was placed on an operation table warmed up with a feedback controlled electric pad. The cat was tracheotomized. For blood pressure registration, a polyethylene catheter was inserted into the femoral artery, with the tip in aorta, and connected via a three-way stopcock to a blood pressure transducer and a Grass polygraph. Heart rate was registered by connecting a tachograph to a driver amplifier which received the signal from the blood pressure transducer. Blood flow in the central mesenteric artery was measured by an ultrasound flow probe around the artery connected to a transonic blood flow meter and then to a Grass polygraph for registration of the flow. For infusion of the test substances, compounds D and A (as identified above), a polyethylene catheter was inserted into the femoral vein three-way stopcock to a syringe placed in an infusion pump (Sage instrument).
Through an incision in the proximal urethra, a catheter was inserted into the urinary bladder. At the beginning of each experiment, this catheter was connected to an open vessel, which was filled with 38° C. tempered physiological saline and placed above the animal. During this stabilization period the bladder relaxed, leading to a filling of the bladder with saline, under constant hydrostatic pressure. After the stabilization period, the bladder catheter was connected to a pressure transducer, for registration of intravesical pressure. Blood pressure, heart rate, blood flow and bladder pressure were recorded simultaneously and continuously throughout the experiment. The animals were left for at least 45 minutes to achieve steady state in cardiovascular variables before starting the experiment.
Bladder pressure was measured at 8 minutes after the end of infusion of the test substance. The surgical preparation was tested by intravenous injection of 0.25 μg/kg b.w. of noradrenalin and 0.5 μg/kg b.w. of acetylcholine.
To study the dose-response relationship of compound D identified above, the substance was administered at the doses 0.000 (physiological saline), 0.003, 0.010, 0.030 and 0.100 mg/kg, respectively, with infusion during 2 minutes and an infusion volume of 1 mL/kg. Every cat got all doses and was left to reestablish at least 45 minutes between the 0.003 and 0.010 mg/kg doses, and 60 minutes between the 0.030 and 0.100 mg/kg doses.
(§5) The results are presented in absolute values and calculated as mean value±standard deviation

Data set [4] has as its system acetylcholine-induced effect on the bladder. Kind of data set: Functional in vivo study in anaesthetized cats: bladder pressure. To be noted: cat, intravenous infusion. Here is the method: as §4, with “For infusion of the test substances, compounds D and A (as identified above), a polyethylene catheter was inserted into the femoral vein three-way stopcock to a syringe placed in an infusion pump (Sage instrument).” left out
Through an incision in the proximal urethra, a catheter was inserted into the urinary bladder. […] Blood pressure, heart rate, blood flow and bladder pressure were recorded simultaneously and continuously throughout the experiment. […]
Bladder pressure was measured at 8 minutes after the end of infusion of the test substance. […]
as §5

Data set [5] has as its target Smooth muscle strips of the urinary bladder (carbachol contraction). In words: Functional in vitro study: antagonism of carbachol-induced contraction of urinary bladder smooth muscle strips. To be noted: guinea pig urinary bladder strips, carbachol agonist, 60 min incubation with antagonist; read-out: KH bladder. On the procedure:
Male guinea pigs, weighing about 300 g, were killed by a blow on the neck and exsanguinated. Smooth muscle strips of the urinary bladder were dissected in a Krebs-Henseleit solution (pH 7.4). The strip preparations were vertically mounted between two hooks in thermostatically controlled (37° C.) organ baths (5 ml). One of the hooks was adjustable and connected to a force transducer (FT 03, Grass Instruments). The Krebs-Henseleit solution was continuously bubbled with carbogen gas (93.5% O2/6.5% CO2) to maintain the pH at 7.4. Isometric tension was recorded by a Grass Polygraph (Model 79D). A resting tension of approximately 5 mN was initially applied on each muscle strip and the preparations were allowed to stabilize for at least 45 min. The resting tension was repeatedly adjusted and the preparations were washed several times during the stabilization period.
Carbachol (carbamylcholine chloride) was used as the standard agonist. In each experiment, the viability of the preparations and the reproducibility of their contractile responses were initially tested by three consecutive additions of a submaximal concentration (3×10^−6M) of carbachol. A complete concentration-response curve to carbachol was then generated by cumulative addition of carbachol to the organ-bath (i.e., stepwise increase of the agonist concentration until the maximal contractile response was reached), followed by washing out and a resting period of at least 15 min. before a fix concentration of the test compound (antagonist) was added to the organ-bath. After 60 min. of incubation with the antagonist, a second cumulative concentration-response curve to carbachol was generated. Responses were expressed as per cent of the maximal response to carbachol. EC50-values for carbachol in the absence (control) and presence of antagonist were graphically derived and dose ratios (r) were calculated. Dissociation constants, KB, for the antagonists were calculated using equation (1)^7, where [A] is the concentration of test compound. KB=[A]/r−1 (1)

[6] abbreviates: intravenous, highest dose (0.3 mg/kg).

The structures appear in SMILES notation. Structures can show the parent of a compound that is named as a salt.

As usually defined, the Ki is a measure of affinity in units of concentration, obtained from inhibition or displacement. Consider `CC(C)N(CCC(c1ccccc1O)c1ccccc1O)C(C)C` [(B), N,N-diisopropyl-3-bis-(2-hydroxyphenyl)propylamine hydrochloride], for which the results for the Ki in data set [1] and in data set [2] were 1.5 nM and 10.2 nM, respectively.
For the compound `CC(C)N(CCC(c1ccccc1)c1cc(CO)ccc1O)C(C)C` (stereo not drawn) [(D), (+)-N,N-diisopropyl-3-(2-hydroxy-5-hydroxymethylphenyl)-3-phenylpropylamine(+)mandelic acid salt], the “increase of diastolic blood pressure” value in data set [3] (intravenous, 0,3 mg/kg) worked out at 10%. Besides, the “increase of systolic blood pressure” value in data set [3] (intravenous, 0,3 mg/kg) is reported as 6%. The “increase of the blood flow in superior mesenterica artery” value in data set [3] (intravenous, 0.003 mg/kg) came to 8%; in data set [3] (intravenous, 0.01 mg/kg), 17%; in data set [3] (intravenous, 0.03 mg/kg), 21%. Also, the “effect on the blood pressure” value in data set [3] (intravenous, doses other than 0,3 mg/kg) is listed as “little or no effect”. The “decrease of heart rate” value in data set [3] (setting [6]) turned out to be 9%. Also, the “increase in blood flow” value in data set [3] (setting [6]) is on record as 10%. Further, the inhibition constant Ki in data set [1] is 0.7 nM; in data set [2], 4.5 nM. The “inhibition of the acetylcholine-induced effect on the bladder (bladder pressure)” value in data set [4] (bladder pressure 8 minutes after end of infusion) was “dose-dependent inhibition”. In addition, in data set [4] (versus compound A), the “efficiency of bladder pressure inhibition relative to prior art compound A” value is “about ten times more efficient”. The Kd in data set [5] was found to be 4.1 nM.
Take `Cc1ccc(O)c(C(CCN(C(C)C)C(C)C)c2ccccc2)c1` (single isomer, unassigned; (+)) [(A), (+)N,N-diisopropyl-3-(2-hydroxy-5-methylphenyl)-3-phenylpropylamine, hydrochloride]: the Ki is 0.8 nM in data set [1] and 2.7 nM in data set [2]. For the same compound, the Kd in data set [5] is 3 nM.
As to `CC(C)N(CCC(c1ccccc1O)c1cc(Cl)ccc1O)C(C)C` (single isomer, unassigned; (+)) [(C), (+)N,N-diisopropyl-3-(5-chloro-2-hydroxyphenyl)-3-(2-hydroxyphenylpropylamine, hydrochloride], the Ki was 0.4 nM in data set [1] and 2.5 nM in data set [2]. Further, the Kd in data set [5] amounted to 2.6 nM.
